≈ marks a conversion by molar mass, not a printed value. A value given as a limit tells only on which side of the number the result lay.

Common to all, as to assay type: functional, cell-based
Experiment [1] concerns A549. As to the kind of experiment: Antitumor activity against human lung adenocarcinoma A549 cell line.
For experiment [2], the system named is CNE. As to the kind of experiment: Antitumor activity against human nasopharyngeal carcinoma CNE cell line.
Experiment [3] has as its system MCF7. As to the kind of experiment: Antitumor activity against human breast adenocarcinoma MCF7 cell line.
In experiment [4] the test system is HeLa. The experiment in a line: Antitumor activity against human cervical carcinoma HeLa cell line.
The mark [5] stands for this setting: Homo sapiens, A549, read-out: IC50.
Setting [6] is: Homo sapiens, CNE, read-out: IC50.
The mark [7] stands for this setting: Homo sapiens, MCF7, read-out: IC50.
The mark [8] stands for this setting: Homo sapiens, HeLa, read-out: IC50.

In the case of `CC1(C)CCC[C@]2(C)c3cc(O)c(O)cc3C(=O)C(=O)[C@H]12`, the concentration for half-maximal inhibition (IC50) in experiment [1] (setting [5]) stood at 25.8 µg/mL (≈ 89.5 µM); in experiment [2] (setting [6]), 9.1 µg/mL (≈ 31.6 µM); in experiment [3] (setting [7]) it was 24.8 µg/mL (≈ 86 µM); in experiment [4] (setting [8]) it was 18 µg/mL (≈ 62.4 µM).

For `CC1(C)CCC[C@]2(C)c3cc(O)c(OCc4cccc([N+](=O)[O-])c4)cc3CC[C@H]12`, the IC50 was above 50 µg/mL in experiment [1] (setting [5]), above 50 µg/mL in experiment [2] (setting [6]), above 50 µg/mL in experiment [3] (setting [7]) and 18.6 µg/mL (≈ 47 µM) in experiment [4] (setting [8]).

In the case of `CC1(C)CCC[C@]2(C)c3cc(O)c(OCc4ccc(Cl)cc4)cc3CC[C@H]12`, the IC50 in experiment [1] (setting [5]), in experiment [2] (setting [6]), in experiment [3] (setting [7]) and in experiment [4] (setting [8]) was above 50 µg/mL throughout.

Take `CC1(C)CCC[C@]2(C)c3cc(OCc4ccccc4F)c(O)cc3CC[C@@H]12`: the IC50 in experiment [1] (setting [5]), in experiment [2] (setting [6]), in experiment [3] (setting [7]) and in experiment [4] (setting [8]) was above 50 µg/mL in each case.

As to `CC1(C)CCC[C@]2(C)c3cc(OCc4ccccc4F)c(O)cc3CC[C@H]12`, the IC50 in experiment [1] (setting [5]) was 13.7 µg/mL (≈ 37.2 µM); in experiment [2] (setting [6]), 7.2 µg/mL (≈ 19.5 µM); in experiment [3] (setting [7]) it was 12.4 µg/mL (≈ 33.7 µM); in experiment [4] (setting [8]), 15.3 µg/mL (≈ 41.5 µM).

Regarding `CC1(C)CCC[C@]2(C)c3cc(O)c(OCc4ccccc4F)cc3CC[C@@H]12`, the IC50 in experiment [1] (setting [5]), in experiment [2] (setting [6]), in experiment [3] (setting [7]) and in experiment [4] (setting [8]) was above 50 µg/mL throughout.

As for `CC1(C)CCC[C@]2(C)c3cc(O)c(O)cc3C(=O)C[C@H]12`, the IC50 in experiment [1] (setting [5]) was above 50 µg/mL; in experiment [2] (setting [6]) it was 13.5 µg/mL (≈ 49.2 µM); in experiment [3] (setting [7]) it was 36.2 µg/mL (≈ 132 µM); in experiment [4] (setting [8]), 17.6 µg/mL (≈ 64.1 µM).

Consider `CC1(C)CCC[C@]2(C)c3cc(OCc4ccc(Cl)cc4)c(O)cc3CC[C@H]12`, for which the IC50 in experiment [1] (setting [5]) is 46.9 µg/mL (≈ 122 µM); in experiment [2] (setting [6]), 27.2 µg/mL (≈ 70.7 µM); in experiment [3] (setting [7]) it was above 50 µg/mL; in experiment [4] (setting [8]) it was 42.2 µg/mL (≈ 110 µM).

Take `CC1(C)CCC[C@]2(C)c3cc(O)c(O)cc3CC[C@H]12`: the IC50 in experiment [1] (setting [5]) came out at 5.7 µg/mL (≈ 21.9 µM); in experiment [2] (setting [6]), 3.6 µg/mL (≈ 13.8 µM); in experiment [3] (setting [7]), 9.6 µg/mL (≈ 36.9 µM); in experiment [4] (setting [8]), 10.9 µg/mL (≈ 41.9 µM).

`CC1(C)CCC[C@]2(C)c3cc(O)c(O)cc3C(=O)C[C@@H]12`: the IC50 in experiment [1] (setting [5]) was above 50 µg/mL; in experiment [2] (setting [6]), 22.1 µg/mL (≈ 80.6 µM); in experiment [3] (setting [7]) it was above 50 µg/mL; in experiment [4] (setting [8]) it was 27.7 µg/mL (≈ 101 µM).

For the molecule `CC1(C)CCC[C@]2(C)c3cc(O)c(O)cc3CC[C@@H]12` (stereo in doubt), the IC50 stood at 36.1 µg/mL (≈ 139 µM) in experiment [1] (a549), 12.1 µg/mL (≈ 46.5 µM) in experiment [2] (cne), 36.5 µg/mL (≈ 140 µM) in experiment [3] (mcf7) and 42 µg/mL (≈ 161 µM) in experiment [4] (hela).

Consider `CC1(C)CCC[C@]2(C)c3cc(O)c(OCc4ccc(Cl)cc4)cc3CC[C@@H]12`, for which the IC50 in experiment [1] (setting [5]), in experiment [2] (setting [6]), in experiment [3] (setting [7]) and in experiment [4] (setting [8]) was above 50 µg/mL in each case.

`COc1cc2c(cc1OC)[C@@]1(C)CCCC(C)(C)[C@H]1CC2=O`: the IC50 was determined as 26.3 µg/mL (≈ 87 µM) in experiment [1] (setting [5]), 3.1 µg/mL (≈ 10.3 µM) in experiment [2] (setting [6]), 7.8 µg/mL (≈ 25.8 µM) in experiment [3] (setting [7]) and 12.7 µg/mL (≈ 42 µM) in experiment [4] (setting [8]).

For `COc1cc2c(cc1OC)[C@@]1(C)CCCC(C)(C)[C@H]1CC2`, the IC50 amounted to 9.6 µg/mL (≈ 33.3 µM) in experiment [1] (setting [5]), 4.5 µg/mL (≈ 15.6 µM) in experiment [2] (setting [6]), 10.9 µg/mL (≈ 37.8 µM) in experiment [3] (setting [7]) and 13.2 µg/mL (≈ 45.8 µM) in experiment [4] (setting [8]).

For `CC1(C)CCC[C@]2(C)c3cc(O)c(O)cc3CC[C@@H]12` (stereo in doubt; 1), the IC50 stood at 19.6 µg/mL (≈ 75.3 µM) in experiment [1] (setting [5]), 25.1 µg/mL (≈ 96.4 µM) in experiment [2] (cne), 41.2 µg/mL (≈ 158 µM) in experiment [3] (setting [7]) and 24.3 µg/mL (≈ 93.3 µM) in experiment [4] (setting [8]).

In the case of `CC1(C)CCC[C@]2(C)c3cc(O)c(OCc4ccccc4F)cc3CC[C@H]12`, the IC50 in experiment [1] (setting [5]) was 35 µg/mL (≈ 95 µM); in experiment [2] (setting [6]) it was 17.8 µg/mL (≈ 48.3 µM); in experiment [3] (setting [7]), 42.9 µg/mL (≈ 116 µM); in experiment [4] (setting [8]), 13.4 µg/mL (≈ 36.4 µM).

On to `COc1cc2c(cc1OC)[C@@]1(C)CCCC(C)(C)[C@@H]1CC2=O`, for which the IC50 in experiment [1] (setting [5]) is above 50 µg/mL; in experiment [2] (setting [6]), above 50 µg/mL; in experiment [3] (setting [7]), above 50 µg/mL; in experiment [4] (setting [8]) it was 25.7 µg/mL (≈ 85 µM).

On to `COc1cc2c(cc1OC)[C@@]1(C)CCCC(C)(C)[C@H]1C(=O)C2=O`, for which the IC50 in experiment [1] (setting [5]) turned out to be 33.8 µg/mL (≈ 107 µM); in experiment [2] (setting [6]), 5.6 µg/mL (≈ 17.7 µM); in experiment [3] (setting [7]) it was 16.5 µg/mL (≈ 52.1 µM); in experiment [4] (setting [8]) it was 16.1 µg/mL (≈ 50.9 µM).

As to `CC1(C)CCC[C@]2(C)c3cc(OCc4ccc(Cl)cc4)c(O)cc3CC[C@@H]12`, the IC50 in experiment [1] (setting [5]), in experiment [2] (setting [6]), in experiment [3] (setting [7]) and in experiment [4] (setting [8]) was above 50 µg/mL throughout.

On to `CC1(C)CCC[C@]2(C)c3cc(O)c(OCc4cccc([N+](=O)[O-])c4)cc3CC[C@@H]12`, for which the IC50 in experiment [1] (setting [5]), in experiment [2] (setting [6]), in experiment [3] (setting [7]) and in experiment [4] (setting [8]) was above 50 µg/mL each time.

As for `CC1(C)CCC[C@]2(C)c3cc(OCc4cccc([N+](=O)[O-])c4)c(O)cc3CC[C@@H]12`, the concentration for half-maximal inhibition (IC50) in experiment [1] (setting [5]), in experiment [2] (setting [6]), in experiment [3] (setting [7]) and in experiment [4] (setting [8]) was above 50 µg/mL each time.

Turning to CISPLATIN, the IC50 turned out to be 3.58 µg/mL in experiment [1] (a549), 2.34 µg/mL in experiment [2] (cne), 6.53 µg/mL in experiment [3] (mcf7) and 5.89 µg/mL in experiment [4] (hela).

`COc1cc2c(cc1OC)[C@@]1(C)CCCC(C)(C)[C@@H]1CC2`: the IC50 in experiment [1] (setting [5]) is 41.7 µg/mL (≈ 145 µM); in experiment [2] (setting [6]), 25.1 µg/mL (≈ 87 µM); in experiment [3] (setting [7]), 39.5 µg/mL (≈ 137 µM); in experiment [4] (setting [8]), 41.5 µg/mL (≈ 144 µM).

Consider `CC1(C)CCC[C@]2(C)c3cc(OCc4cccc([N+](=O)[O-])c4)c(O)cc3CC[C@H]12`, for which the IC50 is 36.4 µg/mL (≈ 92 µM) in experiment [1] (setting [5]), 32.9 µg/mL (≈ 83.2 µM) in experiment [2] (setting [6]), above 50 µg/mL in experiment [3] (setting [7]) and above 50 µg/mL in experiment [4] (setting [8]).

The record behind these values is ChEMBL document CHEMBL1149445, “Isolation, synthesis, and anti-tumor activities of a novel class of podocarpic diterpenes” (Bioorg Med Chem Lett, 2006).
